Columns and labels:
Assay in all cases: scanMAX kinase panel
Format in all cases: binding
Details in all cases: read-out: % Control; for remaining binding at 1 µM: 1000 nM
FLT3(D835H) = molecular target: T1, FLT3(D835H) (Homo sapiens, UniProt P36888, D835H)
T1 construct: purchased DiscoverX scanMAX
T1 sequence (P36888 27-993 D835H): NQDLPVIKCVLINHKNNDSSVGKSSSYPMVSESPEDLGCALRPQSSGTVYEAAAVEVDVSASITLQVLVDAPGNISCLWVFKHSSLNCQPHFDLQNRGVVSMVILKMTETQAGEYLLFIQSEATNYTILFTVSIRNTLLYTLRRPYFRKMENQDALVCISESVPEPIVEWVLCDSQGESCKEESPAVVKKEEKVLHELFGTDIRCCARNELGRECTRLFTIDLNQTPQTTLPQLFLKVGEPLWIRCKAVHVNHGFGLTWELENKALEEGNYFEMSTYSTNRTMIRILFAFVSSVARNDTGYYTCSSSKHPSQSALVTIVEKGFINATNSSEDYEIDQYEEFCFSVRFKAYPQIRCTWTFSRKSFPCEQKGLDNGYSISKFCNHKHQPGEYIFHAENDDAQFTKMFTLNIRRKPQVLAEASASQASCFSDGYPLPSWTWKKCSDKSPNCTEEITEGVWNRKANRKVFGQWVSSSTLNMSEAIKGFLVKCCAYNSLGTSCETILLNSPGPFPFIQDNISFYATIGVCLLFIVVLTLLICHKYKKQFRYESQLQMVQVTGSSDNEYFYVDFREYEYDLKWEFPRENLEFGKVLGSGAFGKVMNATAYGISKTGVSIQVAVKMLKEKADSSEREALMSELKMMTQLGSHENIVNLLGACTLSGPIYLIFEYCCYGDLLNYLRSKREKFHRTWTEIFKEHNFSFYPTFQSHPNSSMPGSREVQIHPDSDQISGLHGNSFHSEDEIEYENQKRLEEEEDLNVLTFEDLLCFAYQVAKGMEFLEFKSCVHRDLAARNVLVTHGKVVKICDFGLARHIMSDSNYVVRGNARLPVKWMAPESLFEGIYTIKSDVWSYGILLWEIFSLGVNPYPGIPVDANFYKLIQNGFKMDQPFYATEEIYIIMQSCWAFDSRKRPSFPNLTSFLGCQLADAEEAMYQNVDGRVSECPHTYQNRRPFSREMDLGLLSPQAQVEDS
Text: (§1) Supplemental Table S2. scanMAXSM Kinome Assay Results. Complete tabulated data of all 468 kinases from the panel, including
(§2) 403 wild-type and 65 mutant isoforms. […] Cmpd 11 and Cmpd 24

NEK1 = molecular target: T2, NEK1 (Homo sapiens, UniProt Q96PY6)
T2 construct: purchased DiscoverX scanMAX
T2 sequence (Q96PY6 1-1258): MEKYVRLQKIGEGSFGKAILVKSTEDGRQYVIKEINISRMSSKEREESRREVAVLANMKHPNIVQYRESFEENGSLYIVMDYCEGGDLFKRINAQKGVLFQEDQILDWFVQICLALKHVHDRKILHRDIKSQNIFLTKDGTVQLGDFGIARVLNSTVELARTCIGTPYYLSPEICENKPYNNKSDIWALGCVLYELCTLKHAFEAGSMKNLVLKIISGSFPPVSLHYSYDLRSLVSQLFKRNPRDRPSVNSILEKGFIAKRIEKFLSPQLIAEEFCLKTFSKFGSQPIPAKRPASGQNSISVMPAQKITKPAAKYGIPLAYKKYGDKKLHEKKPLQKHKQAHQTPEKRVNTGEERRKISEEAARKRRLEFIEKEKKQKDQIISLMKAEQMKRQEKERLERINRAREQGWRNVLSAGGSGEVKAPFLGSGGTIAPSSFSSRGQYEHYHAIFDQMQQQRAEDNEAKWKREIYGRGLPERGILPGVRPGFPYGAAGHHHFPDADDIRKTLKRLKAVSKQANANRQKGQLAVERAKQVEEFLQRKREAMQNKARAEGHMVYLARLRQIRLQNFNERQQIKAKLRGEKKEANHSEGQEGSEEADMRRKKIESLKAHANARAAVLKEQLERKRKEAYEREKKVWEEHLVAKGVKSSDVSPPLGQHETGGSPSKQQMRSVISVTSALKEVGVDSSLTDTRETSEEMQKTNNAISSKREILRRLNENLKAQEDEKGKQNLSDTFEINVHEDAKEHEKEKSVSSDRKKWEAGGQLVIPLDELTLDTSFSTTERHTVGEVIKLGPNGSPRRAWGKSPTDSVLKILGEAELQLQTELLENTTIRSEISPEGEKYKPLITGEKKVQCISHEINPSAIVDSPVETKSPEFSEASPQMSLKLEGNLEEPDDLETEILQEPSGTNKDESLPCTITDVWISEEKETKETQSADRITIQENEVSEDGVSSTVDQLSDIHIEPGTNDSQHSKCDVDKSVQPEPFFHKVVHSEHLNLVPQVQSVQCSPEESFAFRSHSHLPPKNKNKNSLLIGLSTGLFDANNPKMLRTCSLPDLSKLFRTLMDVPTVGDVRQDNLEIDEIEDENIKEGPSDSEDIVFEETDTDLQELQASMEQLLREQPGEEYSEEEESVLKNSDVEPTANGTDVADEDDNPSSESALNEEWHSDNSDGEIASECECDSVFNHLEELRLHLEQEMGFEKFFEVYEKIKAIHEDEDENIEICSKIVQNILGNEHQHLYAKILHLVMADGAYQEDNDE
Text: as §1, §2

AURKB = molecular target: T3, AURKB (Homo sapiens, UniProt Q96GD4)
T3 construct: purchased DiscoverX scanMAX
Text: as §1, §2

T3 sequence (Q96GD4 whole entry): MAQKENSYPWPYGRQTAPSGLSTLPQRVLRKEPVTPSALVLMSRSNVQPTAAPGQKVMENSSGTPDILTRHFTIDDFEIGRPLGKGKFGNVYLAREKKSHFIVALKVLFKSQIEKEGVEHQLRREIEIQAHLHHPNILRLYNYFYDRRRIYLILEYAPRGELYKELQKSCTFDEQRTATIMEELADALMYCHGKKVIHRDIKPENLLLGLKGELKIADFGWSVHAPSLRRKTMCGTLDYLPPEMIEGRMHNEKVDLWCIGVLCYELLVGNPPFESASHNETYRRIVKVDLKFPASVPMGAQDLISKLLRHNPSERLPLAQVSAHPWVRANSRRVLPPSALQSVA

| SMILES | remaining binding at 1 µM (FLT3(D835H)) [%] | remaining binding at 1 µM (NEK1) [%] | remaining binding at 1 µM (AURKB) [%] | remaining binding at 0.1 µM (FLT3(D835H); 100 nM) [%] | remaining binding at 0.1 µM (NEK1; 100 nM) [%] | remaining binding at 0.1 µM (AURKB; 100 nM) [%] |
| --- | --- | --- | --- | --- | --- | --- |
| Cc1cc(NC(=O)[C@H](O)c2cccc(F)c2)ccc1-c1cn(C)c2ncnc(N)c12 [Compound 11, (R)-N-(4-(4-amino-7-methyl-7H-pyrrolo[2,3-d]pyrimidin-5-yl)-3-methylphenyl)-2-(3-fluorophenyl)-2-hydroxy acetamide] | 33 | 2.9 | 24 |  |  |  |
| Cc1nc(N)c2c(-c3ccc(NC(=O)[C@H](O)c4cccc(C(F)(F)F)c4)cc3C)cn(C)c2n1 [Compound 26] | 25 | 100 | 70 | 85 | 88 | 81 |
| Cc1nc(N)c2c(-c3ccc(NC(=O)[C@H](O)c4cccc(F)c4)cc3C)cn(C)c2n1 [Compound 24] | 98 | 100 | 90 |  |  |  |

— publication PMC9611727, “Optimization of a Novel Mandelamide-Derived Pyrrolopyrimidine Series of PERK Inhibitors” (Pharmaceutics, 2022)
